Assay [1] is filed under the species Homo sapiens. As to the kind of experiment: Inhibition of transglutaminase in human keratinocytes assessed as mean transglutaminase activity level at 1.1 10^-6M in presence of 10 uM retinal relative to retinal alone. Type of assay: cell-based. The arrangement: scale not given: the % may be the effect or the level left.
The species named for assay [2] is Homo sapiens. As to the kind of experiment: Inhibition of transglutaminase in human keratinocytes assessed as mean transglutaminase activity level at 8.2 10^-8M in presence of 10 uM retinal relative to retinal alone. In kind it is cell-based. The arrangement: scale not given: the % may be the effect or the level left.
The species named for assay [3] is Homo sapiens. The assay can be described thus: Inhibition of transglutaminase in human keratinocytes assessed as mean transglutaminase activity level at 3.73 10^-7M in presence of 10 uM retinal relative to retinal alone. In kind it is cell-based. The arrangement: scale not given: the % may be the effect or the level left.
The species named for assay [4] is Homo sapiens. As to the kind of experiment: Inhibition of transglutaminase in human keratinocytes assessed as mean transglutaminase activity level at 1 10^-5M in presence of 10 uM retinal relative to retinal alone. In kind it is cell-based. The arrangement: scale not given: the % may be the effect or the level left.
The species named for assay [5] is Homo sapiens. The assay can be described thus: Inhibition of transglutaminase in human keratinocytes assessed as mean transglutaminase activity level at 4.1 10^-8M in presence of 10 uM retinal relative to retinal alone. In kind it is cell-based. The arrangement: scale not given: the % may be the effect or the level left.
For assay [6], the species on record is Homo sapiens. As to the kind of experiment: Inhibition of transglutaminase in human keratinocytes assessed as mean transglutaminase activity level at 3 10^-5M in presence of 10 uM retinal relative to retinal alone. In kind it is cell-based. The arrangement: scale not given: the % may be the effect or the level left.
Assay [7] is filed under the species Homo sapiens. As to the kind of experiment: Inhibition of transglutaminase in human keratinocytes assessed as mean transglutaminase activity level at 3.3 10^-6M in presence of 10 uM retinal relative to retinal alone. Type of assay: cell-based. The arrangement: scale not given: the % may be the effect or the level left.
The species named for assay [8] is Homo sapiens. The assay can be described thus: Inhibition of transglutaminase in human keratinocytes assessed as mean transglutaminase activity level at 1.23 10^-7M in presence of 10 uM retinal relative to retinal alone. Type of assay: cell-based. The arrangement: scale not given: the % may be the effect or the level left.
Assay [9] is filed under the species Rattus norvegicus. As to the kind of experiment: Activation of retinol dehydrogenase in Sprague-Dawley rat liver microsomes assessed as increase in enzyme activity at 100 uM using all-trans retinol and NADP by HPLC analysis relative to control.
For assay [10], the species on record is Homo sapiens. The assay can be described thus: Inhibition of transglutaminase in human keratinocytes assessed as mean transglutaminase activity level at 1.65 10^-9M in presence of 10 uM retinal relative to retinal alone. In kind it is cell-based. The arrangement: scale not given: the % may be the effect or the level left.
The species named for assay [11] is Rattus norvegicus. As to the kind of experiment: Inhibition of retinal reductase in Sprague-Dawley rat liver microsomes at 100 uM using all-trans retinaldehyde and NADPH by HPLC analysis relative to control.
The species named for assay [12] is Homo sapiens. The assay can be described thus: Inhibition of transglutaminase in human keratinocytes assessed as mean transglutaminase activity level at 3.29 10^-9M in presence of 10 uM retinal relative to retinal alone. In kind it is cell-based. The arrangement: scale not given: the % may be the effect or the level left.
For assay [13], the species on record is Homo sapiens.
Description: Inhibition of transglutaminase in human keratinocytes in presence of 10 uM retinal relative to retinal alone
The species named for assay [14] is Homo sapiens. The assay can be described thus: Inhibition of transglutaminase in human keratinocytes assessed as mean transglutaminase activity level at 1.23 10^-5M in presence of 10 uM retinal relative to retinal alone. The arrangement: scale not given: the % may be the effect or the level left. Type of assay: cell-based.
The species entered for assay [15] is Homo sapiens. The assay can be described thus: Inhibition of transglutaminase in human keratinocytes assessed as mean transglutaminase activity level at 4.1 10^-5M in presence of 10 uM retinal relative to retinal alone. Type of assay: cell-based. The arrangement: scale not given: the % may be the effect or the level left.
Assay [16] is filed under the species Homo sapiens. As to the kind of experiment: Inhibition of transglutaminase in human keratinocytes assessed as mean transglutaminase activity level at 1.65 10^-7M in presence of 10 uM retinal relative to retinal alone. Type of assay: cell-based. The arrangement: scale not given: the % may be the effect or the level left.
The species named for assay [17] is Homo sapiens. The assay can be described thus: Inhibition of transglutaminase in human keratinocytes assessed as mean transglutaminase activity level at 8.2 10^-6M in presence of 10 uM retinal relative to retinal alone. Type of assay: cell-based. The arrangement: scale not given: the % may be the effect or the level left.
The species named for assay [18] is Homo sapiens. As to the kind of experiment: Inhibition of transglutaminase in human keratinocytes assessed as mean transglutaminase activity level at 1.1 10^-8M in presence of 10 uM retinal relative to retinal alone. Type of assay: cell-based. The arrangement: scale not given: the % may be the effect or the level left.
The target of assay [19] is T1, Cellular retinoic acid-binding protein 2 (Homo sapiens) (UniProt P29373).
T1 sequence (whole entry): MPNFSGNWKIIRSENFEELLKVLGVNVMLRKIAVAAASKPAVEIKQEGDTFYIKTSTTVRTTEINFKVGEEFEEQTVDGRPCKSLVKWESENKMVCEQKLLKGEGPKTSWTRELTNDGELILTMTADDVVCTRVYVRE
As to the kind of experiment: Inhibition of radioactive all-trans retinoic acid binding to CRABP2 (unknown origin) expressed in Escherichia coli BLR(DE3)pLys incubated for 1 hr by scintillation counting assay. Particulars: concentration not given here.

The species entered for assay [20] is Homo sapiens. The assay can be described thus: Inhibition of transglutaminase in human keratinocytes assessed as mean transglutaminase activity level at 3.73 10^-4M in presence of 10 uM retinal relative to retinal alone. Type of assay: cell-based. The arrangement: scale not given: the % may be the effect or the level left.
For assay [21], the species on record is Homo sapiens. As to the kind of experiment: Inhibition of transglutaminase in human keratinocytes assessed as mean transglutaminase activity level at 1.1 10^-4M in presence of 10 uM retinal relative to retinal alone. In kind it is cell-based. The arrangement: scale not given: the % may be the effect or the level left.
The species named for assay [22] is Homo sapiens. The assay can be described thus: Inhibition of transglutaminase in human keratinocytes assessed as mean transglutaminase activity level at 5.0 10^-8M in presence of 10 uM retinal relative to retinal alone. In kind it is cell-based. The arrangement: scale not given: the % may be the effect or the level left.
The species named for assay [23] is Homo sapiens. As to the kind of experiment: Inhibition of transglutaminase in human keratinocytes assessed as mean transglutaminase activity level at 1.0 10^-3M in presence of 10 uM retinal relative to retinal alone. In kind it is cell-based. The arrangement: scale not given: the % may be the effect or the level left.
Assay [24] is filed under the species Homo sapiens. The assay can be described thus: Inhibition of transglutaminase in human keratinocytes assessed as mean transglutaminase activity level at 3.29 10^-7M in presence of 10 uM retinal relative to retinal alone. Type of assay: cell-based. The arrangement: scale not given: the % may be the effect or the level left.
The species named for assay [25] is Homo sapiens. As to the kind of experiment: Inhibition of transglutaminase in human keratinocytes assessed as mean transglutaminase activity level at 9.0 10^-3M in presence of 10 uM retinal relative to retinal alone. Type of assay: cell-based. The arrangement: scale not given: the % may be the effect or the level left.
For assay [26], the species on record is Homo sapiens. As to the kind of experiment: Inhibition of transglutaminase in human keratinocytes assessed as mean transglutaminase activity level at 3.0 10^-3M in presence of 10 uM retinal relative to retinal alone. In kind it is cell-based. The arrangement: scale not given: the % may be the effect or the level left.
Assay [27] addresses T2, Diacylglycerol O-acyltransferase 1 (Bos taurus) (UniProt Q8MK44).
T2 sequence (whole entry): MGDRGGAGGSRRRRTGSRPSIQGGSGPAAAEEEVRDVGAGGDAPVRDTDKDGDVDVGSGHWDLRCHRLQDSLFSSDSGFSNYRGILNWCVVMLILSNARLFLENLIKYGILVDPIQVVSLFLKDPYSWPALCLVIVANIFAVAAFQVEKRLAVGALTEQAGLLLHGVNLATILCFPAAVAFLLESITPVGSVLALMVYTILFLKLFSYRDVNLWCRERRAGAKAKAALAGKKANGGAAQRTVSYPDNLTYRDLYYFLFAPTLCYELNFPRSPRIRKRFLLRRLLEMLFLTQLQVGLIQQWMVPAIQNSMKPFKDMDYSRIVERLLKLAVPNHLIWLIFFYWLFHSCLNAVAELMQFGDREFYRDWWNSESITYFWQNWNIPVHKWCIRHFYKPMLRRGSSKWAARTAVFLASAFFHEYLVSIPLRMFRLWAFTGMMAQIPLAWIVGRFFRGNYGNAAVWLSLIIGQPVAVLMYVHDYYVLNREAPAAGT
To be noted: at 100 µM.
Description: Inhibition of ARAT in bovine RPE microsomes at 100 uM using retinol substrate in presence of dilauroyl-phosphatidyl choline incubated for 5 mins by HPLC analysis relative to control

The target of assay [28] is T3, Lecithin retinol acyltransferase (Bos taurus) (UniProt Q9BGL2).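 Note: bovine retinal pigment epithelium microsomes given retinol plus palmitoyl-CoA, 5 min reaction, ester formation read by HPLC, inhibition expressed versus untreated control.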
T3 sequence (whole entry): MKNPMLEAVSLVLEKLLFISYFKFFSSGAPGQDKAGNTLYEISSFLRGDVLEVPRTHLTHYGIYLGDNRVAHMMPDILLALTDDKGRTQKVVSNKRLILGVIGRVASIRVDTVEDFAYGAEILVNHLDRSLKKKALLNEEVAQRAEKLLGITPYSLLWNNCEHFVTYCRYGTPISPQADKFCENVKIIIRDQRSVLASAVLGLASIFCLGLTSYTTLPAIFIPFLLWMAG
Particulars: at 100 µM.
Description: Inhibition of LRAT in bovine RPE microsomes at 100 uM using retinol substrate in presence of Palmitoyl-CoA incubated for 5 mins by HPLC analysis relative to control

For assay [29], the species on record is Homo sapiens. The assay can be described thus: Inhibition of transglutaminase in human keratinocytes in presence of retinal relative to retinal alone. Type of assay: cell-based. Particulars: concentration not given here.

As to `CCCCCCCC/C=C\CCCCCCCCCCCCCC(=O)N[C@@H](COP(=O)([O-])OCC[N+](C)(C)C)[C@H](O)/C=C/CCCCCCCCCCCCC`, the Activity stood at 98.8% in the assay listed under Homo sapiens [1]; 115% in the assay listed under Homo sapiens [2]; 91.6% in the assay filed under Homo sapiens [3]; 77.8% in the assay listed under Homo sapiens [4]; 74.6% in the assay filed under Homo sapiens [5]; 45% in the assay filed under Homo sapiens [6]. Also, the Activity amounted to 76.4% in the assay filed under Homo sapiens [7], 70% in the assay listed under Homo sapiens [8], 26% in the assay filed under Rattus norvegicus [9] and 68.4% in the assay listed under Homo sapiens [10].

`COc1cc(NS(C)(=O)=O)ccc1Nc1c2ccccc2nc2ccccc12`: the inhibition in the assay filed under Rattus norvegicus [11] stood at 22%. For the same compound, the Activity in the assay filed under Homo sapiens [1] amounted to 84%; in the assay filed under Homo sapiens [2], 131%; in the assay listed under Homo sapiens [3], 109%; in the assay filed under Homo sapiens [4], 1.8%; in the assay listed under Homo sapiens [12], 92%; in the assay listed under Homo sapiens [5], 110%. Besides, the Activity in the assay listed under Homo sapiens [6] was -10%; in the assay filed under Homo sapiens [7], 64%; in the assay listed under Homo sapiens [8], 65%; in the assay filed under Homo sapiens [10], 113%. For the same compound, the IC20 in the assay filed under Homo sapiens [13] was determined as 3.3 ×10⁻⁶ M.

Regarding `O=C(O)CCCCCCCCCCCCCCC(=O)O`, the Activity was 130% in the assay filed under Homo sapiens [14]; 105% in the assay filed under Homo sapiens [15]; 95% in the assay filed under Homo sapiens [16]; 114% in the assay filed under Homo sapiens [17]; 70% in the assay listed under Homo sapiens [18]; 43.4% in the assay listed under Homo sapiens [20]. The Activity in the assay filed under Homo sapiens [21] was determined as 14.2%; in the assay listed under Homo sapiens [22] it was 74%. Besides, the inhibition in assay [19] is more than 50%. Moreover, the IC20 in the assay filed under Homo sapiens [13] came out at 8.4 ×10⁻⁵ M.

With `CCCCC/C=C\C/C=C\CCCCCCCC(=O)O`, in the assay filed under Rattus norvegicus [11], the inhibition is 62%. Besides, the Activity in the assay listed under Homo sapiens [14] was 62.6%; in the assay filed under Homo sapiens [15], 76.8%; in the assay listed under Homo sapiens [16] it was 106%; in the assay listed under Homo sapiens [23] it was -16.4%; in the assay listed under Homo sapiens [24] it was 60.2%; in the assay listed under Homo sapiens [25], -6%. The Activity in the assay filed under Homo sapiens [17] was determined as 146%; in the assay filed under Homo sapiens [20], 79.2%; in the assay listed under Homo sapiens [21], 4.4%; in the assay listed under Homo sapiens [26], 0.1%. Further, in the assay filed under Homo sapiens [13], the IC20 was found to be 8.95 ×10⁻⁵ M.

With `CCCCCCCCCCCC(=O)NCCO`, the inhibition stood at 13% in assay [27], 34% in assay [28] and 11% in the assay filed under Homo sapiens [29].

(Values after ChEMBL document CHEMBL4420071, “Method for treating skin with retinoids and retinoid boosters” (2013).)
